Laboratory results published in patent US4520200A, “Isoxazole derivatives” (Zambon S.p.A., priority 1978, dated 1985).
Several values for one entry are separate records, joined by “and”; a condition that tells them apart may be missing. Identical values can stand only once.

Tests used:
[1] = acute toxicity, LD50, rat; settings: in vivo
[2] = tolerance in different animal species and administration ways; format: in vivo
[3] = acute toxicity, LD50, mouse; settings: in vivo

CC(C)(C)NCC(O)c1cc(Br)no1 (stereo not drawn) [Z 1170, 1-(3-bromo-isoxazol-5-yl)-2-ter.butylaminoethanol]
LD50 ([1]; iv, i.v. (1 ml/100 g/60")): 196 mg/kg and 650 µmol/kg
LD50 ([1]; po, os): > 2000 mg/kg
tolerance [2]: particularly favorable tolerance
LD50 ([3]; ip): 230 mg/kg
LD50 ([3]; iv, i.v. (1 ml/100 g/60")): 126 mg/kg and 420 µmol/kg
LD50 ([3]; po, os): 770 mg/kg
